Laboratory results published in article PMC10866072, “Design, synthesis, molecular modelling and biological evaluation of novel 6-amino-5-cyano-2-thiopyrimidine derivatives as potent anticancer agents against leukemia and apoptotic inducers” (Journal of Enzyme Inhibition and Medicinal Chemistry, 2024).

Experiments:
MDA-MB-231/ATCC = assay type: cell-based; settings: Homo sapiens, one dose 10^-5 M, 48 h
HCT-15 = assay type: cell-based; settings: Homo sapiens, one dose 10^-5 M, 48 h, read-out: % growth
[1] = tested on: full NCI 60 cell lines panel
SNB-19 = assay type: cell-based; settings: Homo sapiens, one dose 10^-5 M, 48 h, read-out: % growth
HCT-116 = assay type: cell-based; settings: Homo sapiens, one dose 10^-5 M, 48 h, read-out: % growth
SN12C = assay type: cell-based, human; settings: Homo sapiens, one dose 10^-5 M, 48 h
SF-539 = assay type: cell-based; settings: Homo sapiens, one dose 10^-5 M, 48 h
HL-60(TB) = assay type: cell-based; settings: Homo sapiens, one dose 10^-5 M, 48 h
SF-268 = assay type: cell-based; settings: Homo sapiens, one dose 10^-5 M, 48 h, read-out: % growth
SK-MEL-2 = assay type: cell-based; settings: Homo sapiens, one dose 10^-5 M, 48 h
SR = assay type: cell-based; settings: Homo sapiens, one dose 10^-5 M, 48 h
HT29 = assay type: cell-based; settings: Homo sapiens, HT-29, one dose 10^-5 M, 48 h
MOLT-4 = assay type: cell-based; settings: Homo sapiens, one dose 10^-5 M, 48 h, read-out: % growth
OVCAR-4 = assay type: cell-based; settings: Homo sapiens, one dose 10^-5 M, 48 h
NCI-H23 = assay type: cell-based; settings: Homo sapiens, one dose 10^-5 M, 48 h, read-out: % growth
CAKI-1 = assay type: cell-based; settings: Homo sapiens, CAKI-1, 48 h, one dose 10^-5 M, 48 h
UACC-62 = assay type: cell-based; settings: Homo sapiens, one dose 10^-5 M, 48 h
SK-OV-3 = assay type: cell-based; settings: Homo sapiens, one dose 10^-5 M, 48 h
OVCAR-5 = assay type: cell-based; settings: Homo sapiens, one dose 10^-5 M, 48 h
A498 = assay type: cell-based; settings: Homo sapiens, one dose 10^-5 M, 48 h
M14 = assay type: cell-based; settings: Homo sapiens, one dose 10^-5 M, 48 h
CCRF-CEM = assay type: cell-based; settings: Homo sapiens, one dose 10^-5 M, 48 h
KM12 = assay type: cell-based; settings: Homo sapiens, one dose 10^-5 M, 48 h
HOP-92 = assay type: cell-based; settings: Homo sapiens, one dose 10^-5 M, 48 h
SF-295 = assay type: cell-based; settings: Homo sapiens, one dose 10^-5 M, 48 h
DU-145 = assay type: cell-based; settings: Homo sapiens, one dose 10^-5 M, 48 h
MALME-3M = assay type: cell-based; settings: Homo sapiens, one dose 10^-5 M, 48 h
U251 = assay type: cell-based; settings: Homo sapiens, U-251, one dose 10^-5 M, 48 h
IGROV1 = assay type: cell-based; settings: Homo sapiens, IGROV-1, one dose 10^-5 M, 48 h, read-out: % growth
UACC-257 = assay type: cell-based; settings: Homo sapiens, one dose 10^-5 M, 48 h
ACHN = assay type: cell-based; settings: Homo sapiens, one dose 10^-5 M, 48 h
MDA-MB-468 = assay type: cell-based; settings: Homo sapiens, one dose 10^-5 M, 48 h
HOP-62 = assay type: cell-based; settings: Homo sapiens, one dose 10^-5 M, 48 h
HCC-2998 = assay type: cell-based; settings: Homo sapiens, one dose 10^-5 M, 48 h
TK-10 = assay type: cell-based; settings: Homo sapiens, one dose 10^-5 M, 48 h
K-562 = assay type: cell-based; settings: Homo sapiens, K562, one dose 10^-5 M, 48 h
NCI-H226 = assay type: cell-based; settings: Homo sapiens, one dose 10^-5 M, 48 h
SK-MEL-28 = assay type: cell-based; settings: Homo sapiens, one dose 10^-5 M, 48 h
OVCAR-3 = assay type: cell-based; settings: Homo sapiens, one dose 10^-5 M, 48 h
COLO 205 = assay type: cell-based; settings: Homo sapiens, one dose 10^-5 M, 48 h
BT-549 = assay type: cell-based; settings: Homo sapiens, one dose 10^-5 M, 48 h
OVCAR-8 = assay type: cell-based; settings: Homo sapiens, one dose 10^-5 M, 48 h
LOX IMVI = assay type: cell-based; settings: Homo sapiens, one dose 10^-5 M, 48 h, read-out: % growth
NCI-H460 = assay type: cell-based; settings: Homo sapiens, one dose 10^-5 M, 48 h, read-out: % growth
PC-3 = assay type: cell-based; settings: Homo sapiens, one dose 10^-5 M, 48 h
SW-620 = assay type: cell-based; settings: Homo sapiens, one dose 10^-5 M, 48 h
NCI/ADR-RES = assay type: cell-based; settings: Homo sapiens, one dose 10^-5 M, 48 h
HS 578T = assay type: cell-based; settings: Homo sapiens; one dose 10^-5 M, 48 h; HS 578T; read-out: % growth
RXF 393 = assay type: cell-based; settings: Homo sapiens, RXF 393, 48 h, one dose 10^-5 M, 48 h, read-out: % growth
786-0 = assay type: cell-based; settings: Homo sapiens, one dose 10^-5 M, 48 h
T-47D = assay type: cell-based; settings: Homo sapiens, T47D, one dose 10^-5 M, 48 h, read-out: % growth
MCF7 = assay type: cell-based; settings: Homo sapiens, one dose 10^-5 M, 48 h, read-out: % growth
RPMI-8226 = assay type: cell-based; settings: Homo sapiens, one dose 10^-5 M, 48 h
EKVX = assay type: cell-based; settings: Homo sapiens, one dose 10^-5 M, 48 h
A549/ATCC = assay type: cell-based; settings: Homo sapiens, one dose 10^-5 M, 48 h
SK-MEL-5 = assay type: cell-based; settings: Homo sapiens, one dose 10^-5 M, 48 h, read-out: % growth
MDA-MB-435 = assay type: cell-based; settings: Homo sapiens, one dose 10^-5 M, 48 h, read-out: % growth
NCI-H522 = assay type: cell-based; settings: Homo sapiens, one dose 10^-5 M, 48 h
UO-31 = assay type: cell-based; settings: Homo sapiens, UO-31, 48 h, one dose 10^-5 M, 48 h

CN(C)c1ccc(-c2nc(S)nc(N)c2-c2ncn[nH]2)cc1 [Compound 5a, 4-Aamino-6-[4-(dimethylamino)phenyl]-5-(1H-1,2,4-triazol-5-yl)pyrimidine-2-thiol]
% growth at 10 µM (MDA-MB-231/ATCC): 107%
activity at 10 µM (HCT-15): 116%
activity at 10 µM ([1]; Homo sapiens, 60 cell, 48 h, read-out: Mean % growth): 107%
activity on all 60 cancer cell lines tested (in words) ([1]; one dose): weak activity
activity at 10 µM (SNB-19): 102%
activity at 10 µM (HCT-116): 102%
% growth at 10 µM (SN12C): 106%
% growth at 10 µM (SF-539): 108%
% growth at 10 µM (HL-60(TB)): 84.4%
activity at 10 µM (SF-268): 107%
% growth at 10 µM (SK-MEL-2): 116%
percent cell growth at 10 µM (SR): 85.7%
% growth at 10 µM (HT29): 111%
activity at 10 µM (MOLT-4): 100%
% growth at 10 µM (OVCAR-4): 115%
activity at 10 µM (NCI-H23): 108%
% growth at 10 µM (CAKI-1): 89.7%
% growth at 10 µM (UACC-62): 102%
% growth at 10 µM (SK-OV-3): 103%
percent cell growth at 10 µM (OVCAR-5): 120%
% growth at 10 µM (A498): 131%
% growth at 10 µM (M14): 105%
% cell growth at 10 µM (CCRF-CEM): 103%
% growth at 10 µM (KM12): 105%
% growth at 10 µM (HOP-92): 100%
% cell growth at 10 µM (SF-295): 104%
% growth at 10 µM (DU-145): 115%
% growth at 10 µM (MALME-3M): 96.7%
% growth at 10 µM (U251): 111%
activity at 10 µM (IGROV1): 109%
percent cell growth at 10 µM (UACC-257): 113%
% growth at 10 µM (ACHN): 119%
percent cell growth at 10 µM (MDA-MB-468): 110%
% growth at 10 µM (HOP-62): 103%
% growth at 10 µM (HCC-2998): 112%
% cell growth at 10 µM (TK-10): 117%
% growth at 10 µM (K-562): 89.8%
% growth at 10 µM (NCI-H226): 110%
% cell growth at 10 µM (SK-MEL-28): 119%
% growth at 10 µM (OVCAR-3): 111%
% growth at 10 µM (COLO 205): 116%
% cell growth at 10 µM (BT-549): 98.1%
% growth of cells at 10 µM (OVCAR-8): 113%
activity at 10 µM (LOX IMVI): 109%
activity at 10 µM (NCI-H460): 111%
percent cell growth at 10 µM (PC-3): 102%
% growth at 10 µM (SW-620): 106%
cell growth percent at 10 µM (NCI/ADR-RES): 115%
activity at 10 µM (HS 578T): 113%
activity at 10 µM (RXF 393): 113%
% growth at 10 µM (786-0): 96.3%
activity at 10 µM (T-47D): 109%
activity at 10 µM (MCF7): 96.6%
% growth at 10 µM (RPMI-8226): 109%
% cell growth at 10 µM (EKVX): 121%
% growth at 10 µM (A549/ATCC): 108%
activity at 10 µM (SK-MEL-5): 108%
activity at 10 µM (MDA-MB-435): 113%
% growth at 10 µM (NCI-H522): 101%
% cell growth at 10 µM (UO-31): 93.9%
